In ChEMBL document CHEMBL1128559, “Inhibition of the oncogene product p185erbB-2 in vitro and in vivo by geldanamycin and dihydrogeldanamycin derivatives” (J Med Chem, 1995):

Legend:
SK-BR-3 [1] = experiment: Inhibition of oncogene product p185 erbB-2 from human breast cancer cells(SK-BR-3 cells).
Mus musculus [2] = experiment: In vivo inhibition of phospho-p185erbB-2 expression in FRE/erbB-2 tumors in nu/nu mice at 100 mg/kg dose.
Mus musculus [3] = experiment: In vivo inhibition of phospho-p185erbB-2 expression in FRE/erbB-2 tumors in nu/nu mice at 200 mg/kg dose.
SK-BR-3 [4] = experiment: Inhibition of oncogene product p185 erbB-2 from human breast cancer cells(SK-BR-3 cells) at 50 mg/kg dose.; assay type: functional
Mus musculus [5] = experiment: In vivo inhibition of phospho-p185erbB-2 expression in human SK-BR-3 tumors at 50 mg/kg ip dose in mice; assay type: functional; conditions: SK-BR-3, ip, route intraperitoneal
Mus musculus [6] = experiment: In vivo inhibition of phospho-p185erbB-2 expression in human SK-BR-3 tumors at 100 mg/kg ip dose in mice; assay type: functional; conditions: SK-BR-3, ip, route intraperitoneal
SK-BR-3 [7] = experiment: In vitro inhibition of phospho-p185erbB-2 expression in human breast cancer cells(SK-BR-3 cells) at 50 mg/kg dose; assay type: functional; set-up: dose 50 mg/kg
Mus musculus [8] = experiment: In vivo inhibition of phospho-p185erbB-2 expression in FRE/erbB-2 tumors at 400 mg/kg ip dose in mice; conditions: FRE/erbB-2, ip
Mus musculus [9] = experiment: In vivo inhibition of phospho-p185erbB-2 expression in human SK-BR-3 tumors at 100 mg/kg dose in mice; assay type: functional
Mus musculus [10] = experiment: In vivo inhibition of phospho-p185erbB-2 expression in FRE/erbB-2 tumors at 50 mg/kg dose in mice
Mus musculus [11] = experiment: In vivo inhibition of phospho-p185erbB-2 expression in FRE/erbB-2 tumors at 200 mg/kg dose in mice
Mus musculus [12] = experiment: In vivo inhibition of phospho-p185erbB-2 expression in FRE/erbB-2 tumors at 400 mg/kg dose in mice
SK-BR-3 [13] = experiment: […] inhibition of phospho-p185erbB-2 expression in human breast cancer cells(SK-BR-3 cells) at 200 mg/kg dose.; assay type: functional
Mus musculus [14] = organism: Mus musculus; conditions: 400 mg/kg
Description: In vivo inhibition of phospho-p185erbB-2 expression in human SK-BR-3 tumors at 400 mg/kg dose in mice (lethal)

Mus musculus [15] = experiment: In vivo inhibition of phospho-p185erbB-2 expression in FRE/erbB-2 tumors at 200 mg/kg dose ip in mice; conditions: FRE/erbB-2, ip

| SMILES | IC50 (SK-BR-3 [1]) | inhibition in vivo at 100 mg/kg (Mus musculus [2]) | inhibition in vivo at 200 mg/kg (Mus musculus [3]) | other results |
| --- | --- | --- | --- | --- |
| CO[C@H]1/C=C\C=C(/C)C(=O)NC2=CC(=O)C(NCCF)=C(C[C@@H](C)C[C@H](OC)[C@H](O)[C@@H](C)/C=C(\C)[C@@H]1OC(N)=O)C2=O | 12 nM | 50% | 68% |  |
| CCN(CC)C1=NC2=C3C[C@@H](C)C[C@H](OC)[C@H](O)[C@@H](C)/C=C(\C)[C@H](OC(N)=O)[C@@H](OC)/C=C\C=C(/C)C(=O)NC(=CC2=N1)C3=O |  |  |  | IC50 (SK-BR-3 [4]): 210 nM |
| COCCNC1=C2C[C@@H](C)C[C@H](OC)[C@H](O)[C@@H](C)/C=C(\C)[C@H](OC(N)=O)[C@@H](OC)CC/C=C(\C)C(=O)NC(=CC1=O)C2=O | 33 nM | 42% | 69% |  |
| CO[C@H]1C[C@H](C)CC2=C(NCCF)C(=O)C=C(NC(=O)/C(C)=C/CC[C@H](OC)[C@@H](OC(N)=O)/C(C)=C/[C@H](C)[C@H]1O)C2=O | 27 nM |  | 53% |  |
| CO[C@H]1/C=C\C=C(/C)C(=O)NC2=CC(=O)C(NC[C@H](C)O)=C(C[C@@H](C)C[C@H](OC)[C@H](O)[C@@H](C)/C=C(\C)[C@@H]1OC(N)=O)C2=O | 99 nM | 65% | 70% |  |
| CO[C@H]1/C=C\C=C(/C)C(=O)NC2=CC(=O)C=C(C[C@@H](C)C[C@H](OC)[C@H](O)[C@@H](C)/C=C(\C)[C@@H]1OC(N)=O)C2=O |  |  |  | inhibition in vivo at 50 mg/kg (Mus musculus [5]): 29%; inhibition in vivo at 100 mg/kg (Mus musculus [6]): 34%; IC50 (SK-BR-3 [7]): 300 nM; inhibition in vivo at 400 mg/kg (Mus musculus [8]): 57% |
| C=CCNC1=C2C[C@@H](C)C[C@H](OC)[C@H](O)[C@@H](C)/C=C(\C)[C@H](OC(N)=O)[C@@H](OC)/C=C\C=C(/C)C(=O)NC(=CC1=O)C2=O [TANESPIMYCIN] | 31 nM | 55% | 68% | inhibition in vivo at 100 mg/kg (Mus musculus [9]): 60%; inhibition in vivo at 50 mg/kg (Mus musculus [10]): 27%; inhibition in vivo at 200 mg/kg (Mus musculus [11]): 80%; inhibition in vivo at 400 mg/kg (Mus musculus [12]): 72% |
| CO[C@H]1/C=C\C=C(/C)C(=O)NC2=CC(=O)C(NCCC#N)=C(C[C@@H](C)C[C@H](OC)[C@H](O)[C@@H](C)/C=C(\C)[C@@H]1OC(N)=O)C2=O |  |  |  | IC50 (SK-BR-3 [4]): 17 nM; inhibition in vivo at 200 mg/kg (SK-BR-3 [13]): 61% |
| CO[C@H]1C[C@H](C)CC2=C3N=C(N(C)C)N=C3C=C(NC(=O)/C(C)=C/CC[C@H](OC)[C@@H](OC(N)=O)/C(C)=C/[C@H](C)[C@H]1O)C2=O |  |  |  | IC50 (SK-BR-3 [4]): 50 nM |
| CO[C@H]1C[C@H](C)CC2=C(N)C(=O)C=C(NC(=O)/C(C)=C/CC[C@H](OC)[C@@H](OC(N)=O)/C(C)=C/[C@H](C)[C@H]1O)C2=O | 40 nM | 45% | 44% |  |
| CO[C@H]1/C=C\C=C(/C)C(=O)NC2=CC(=O)C(N)=C(C[C@@H](C)C[C@H](OC)[C@H](O)[C@@H](C)/C=C(\C)[C@@H]1OC(N)=O)C2=O | 37 nM |  | 47% |  |
| CO[C@H]1C[C@H](C)CC2=C(NCC(C)O)C(=O)C=C(NC(=O)/C(C)=C/CC[C@H](OC)[C@@H](OC(N)=O)/C(C)=C/[C@H](C)[C@H]1O)C2=O (some centres not stated) | 83 nM |  | 32% |  |
| COC1=C2C[C@@H](C)C[C@H](OC)[C@H](O)[C@@H](C)/C=C(\C)[C@H](OC(N)=O)[C@@H](OC)/C=C\C=C(/C)C(=O)NC(=CC1=O)C2=O [GELDANAMYCIN] | 70 nM |  |  | inhibition in vivo at 50 mg/kg (Mus musculus [5]): 30%; inhibition in vivo at 100 mg/kg (Mus musculus [6]): 6%; inhibition (Mus musculus [14]): Lethal; inhibition in vivo at 200 mg/kg (Mus musculus [15]): 25% |
| CO[C@H]1/C=C\C=C(/C)C(=O)NC2=CC3=NC(N(C)C)=NC3=C(C[C@@H](C)C[C@H](OC)[C@H](O)[C@@H](C)/C=C(\C)[C@@H]1OC(N)=O)C2=O |  |  |  | IC50 (SK-BR-3 [4]): 50 nM |
| CO[C@H]1C[C@H](C)CC2=C(NCCO)C(=O)C=C(NC(=O)/C(C)=C/CC[C@H](OC)[C@@H](OC(N)=O)/C(C)=C/[C@H](C)[C@H]1O)C2=O | 34 nM |  | 55% |  |
| CO[C@H]1C[C@H](C)CC2=C(NC3CC3)C(=O)C=C(NC(=O)/C(C)=C/CC[C@H](OC)[C@@H](OC(N)=O)/C(C)=C/[C@H](C)[C@H]1O)C2=O | 46 nM | 31% |  |  |
| CO[C@H]1C[C@H](C)CC2=C(N3CCC3)C(=O)C=C(NC(=O)/C(C)=C/CC[C@H](OC)[C@@H](OC(N)=O)/C(C)=C/[C@H](C)[C@H]1O)C2=O | 14 nM | 38% | 27% |  |
| CO[C@H]1/C=C\C=C(/C)C(=O)NC2=CC3=NC(N(C)Cc4ccccc4)=NC3=C(C[C@@H](C)C[C@H](OC)[C@H](O)[C@@H](C)/C=C(\C)[C@@H]1OC(N)=O)C2=O |  |  |  | IC50 (SK-BR-3 [4]): 300 nM |
| CO[C@H]1/C=C\C=C(/C)C(=O)NC2=CC(=O)C(NC(C)C)=C(C[C@@H](C)C[C@H](OC)[C@H](O)[C@@H](C)/C=C(\C)[C@@H]1OC(N)=O)C2=O | 60 nM |  | 87% |  |
| CO[C@H]1C[C@H](C)CC2=C(N3CC(O)C3)C(=O)C=C(NC(=O)/C(C)=C/CC[C@H](OC)[C@@H](OC(N)=O)/C(C)=C/[C@H](C)[C@H]1O)C2=O | 50 nM | 29% | 44% |  |
| CO[C@H]1/C=C\C=C(/C)C(=O)NC2=CC(=O)C(N3CCC3)=C(C[C@@H](C)C[C@H](OC)[C@H](O)[C@@H](C)/C=C(\C)[C@@H]1OC(N)=O)C2=O | 23 nM | 61% | 68% |  |
| CO[C@H]1/C=C\C=C(/C)C(=O)NC2=CC(=O)C(NCCCN(C)C)=C(C[C@@H](C)C[C@H](OC)[C@H](O)[C@@H](C)/C=C(\C)[C@@H]1OC(N)=O)C2=O | 140 nM |  |  |  |
| CNC1=C2C[C@@H](C)C[C@H](OC)[C@H](O)[C@@H](C)/C=C(\C)[C@H](OC(N)=O)[C@@H](OC)CC/C=C(\C)C(=O)NC(=CC1=O)C2=O | 12 nM |  | 37% |  |
| CO[C@H]1C[C@H](C)CC2=C(NCCC#N)C(=O)C=C(NC(=O)/C(C)=C/CC[C@H](OC)[C@@H](OC(N)=O)/C(C)=C/[C@H](C)[C@H]1O)C2=O |  |  |  | IC50 (SK-BR-3 [4]): 30 nM |
| COC1c2cc(O)cc(c2O)NC(=O)/C(C)=C/C=C\[C@H](OC)[C@@H](OC(N)=O)/C(C)=C/[C@H](C)[C@@H](O)[C@@H](OC)C[C@@H]1C (some centres not stated) | 1100 nM |  |  |  |
| C=CCNC1=C2C[C@@H](C)C[C@H](OC)[C@H](O)[C@@H](C)/C=C(\C)[C@H](OC(N)=O)[C@@H](OC)CC/C=C(\C)C(=O)NC(=CC1=O)C2=O | 51 nM |  |  |  |
| CO[C@H]1/C=C\C=C(/C)C(=O)NC2=CC(=O)C(NCCNC(C)=O)=C(C[C@@H](C)C[C@H](OC)[C@H](O)[C@@H](C)/C=C(\C)[C@@H]1OC(N)=O)C2=O | 1270 nM |  |  |  |
